Results from patent publication US20150246136A1, “NOVEL BINDER-DRUG CONJUGATES (ADCs) AND USE OF SAME” (priority 2011, published 2015).
Counter-ions that a name gives are not always drawn. Square brackets hold non-standard residues; d marks the D form. Peptide text beside a SMILES is read from it. * marks the point of attachment. X2 = CC(C)[C@@H](C(=O)*)N(C)CCCCCCN1C(=O)CC(SC[C@H](N)C(=O)O)C1=O; X1 = CC(C)[C@@H](C(=O)*)N(C)CCCCCC(=O)NCCCC[C@H](N)C(=O)O; Dolaproine = CO[C@@H]([C@@H]1CCCN1)[C@@H](C)C(=O)O; Dil = CC[C@H](C)[C@H](NC)[C@@H](CC(=O)O)OC; X5 = C[C@@H](N*)[C@@H](O)c1ccccc1; Oxazinan2yl(1,2) = C1CCN(*)OC1; NMeV = CN[C@H](C(=O)O)C(C)C

Test system: Caco2 cells
Experiment: Cell permeability, flux assay using Caco2 cells
Format: in vitro ADME
Conditions: 2 hours
Procedure: C-3.3 In Vitro Tests for Determining Cell Permeability
The cell permeability of a substance can be investigated by means of in vitro testing in a flux assay using Caco2 cells (M. D. Troutman and D. R. Thakker, Pharm. Res. 20(8):1210-1224 (2003)). To do so, the cells are cultured on 24-hole filter plates for 15-16 days. To determine the permeation, the respective test substance in a HEPES buffer was applied to the cells either apically (A) or basally (B) and incubated for 2 hours. After 0 h and 2 h, samples were taken from the cis and trans compartments. The samples were separated by HPLC (Agilent 1200, Biblingen, Germany) using reverse-phase columns. The HPLC system was linked to a triple quadrupole mass spectrometer API 4000 (Applied Biosystems Applera, Darmstadt, Germany) via a turbo ion spray interface. Permeability was evaluated on the basis of a Papp value which was calculated by means of the formula published by Schwab et al. (D. Schwab et al., J. Med. Chem. 46, 1716-1725 (2003)).
The permeability of B to A (Papp (B-A)) is of crucial importance for toxophores but are released intracellularly: the lower this permeability, the longer is the dwell time of the substance in the cell after intracellular release and thus also the time available for interaction with the biochemical target (here tubulin).

| SMILES | Papp (B-A) |
| --- | --- |
| CC[C@H](C)[C@@H]([C@@H](CC(=O)N1CCC[C@H]1[C@H](OC)[C@@H](C)C(=O)N[C@@H](Cc1c[nH]c2ccccc12)C(N)=O)OC)N(C)C(=O)[C@@H](NC(=O)[C@H](C(C)C)N(C)CCCC(=O)NNC(=O)CCCCCN1C(=O)CC(SC[C@H](N)C(=O)O)C1=O)C(C)C (stereo partly drawn) [Example 233, N-(4-{2-[6-(3-{[(2R)-2-amino-2-carboxyethyl]sulfanyl}-2,5-dioxopyrrolidin-1-yl)hexanoyl]hydrazino}-4-oxobutyl)-N-methyl-L-valyl-N-[(3R,4S,5S)-1-{(2S)-2-[(1R,2R)-3-{[(2S)-1-amino-3-(1H-indol-3-yl)-1-oxopropan-2-yl]amino}-1-methoxy-2-methyl-3-oxopropyl]pyrrolidin-1-yl}-3-methoxy-5-methyl-1-oxoheptan-4-yl]-N-methyl-L-valinamide] | 0.2 ×10⁻⁶ cm/s |
| CC[C@H](C)[C@@H]([C@@H](CC(=O)N1CCC[C@H]1[C@H](OC)[C@@H](C)C(=O)N[C@@H](Cc1c[nH]c2ccccc12)C(=O)O)OC)N(C)C(=O)[C@@H](NC(=O)[C@H](C(C)C)N(C)CCCC(=O)NNC(=O)CCCCCN1C(=O)CC(SC[C@H](N)C(=O)O)C1=O)C(C)C (stereo partly drawn) [Example 234, N-(4-{2-[6-(3-{[(2R)-2-amino-2-carboxyethyl]sulfanyl}-2,5-dioxopyrrolidin-1-yl)hexanoyl]hydrazino}-4-oxobutyl)-N-methyl-L-valyl-N-[(3R,4S,5S)-1-{(2S)-2-[(1R,2R)-3-{[(1S)-1-carboxy-2-(1H-indol-3-yl)ethyl]amino}-1-methoxy-2-methyl-3-oxopropyl]pyrrolidin-1-yl}-3-methoxy-5-methyl-1-oxoheptan-4-yl]-N-methyl-L-valinamide] | 0.16 ×10⁻⁶ cm/s |
| CC[C@H](C)[C@@H]([C@@H](CC(=O)N1CCC[C@H]1[C@H](OC)[C@@H](C)C(=O)N[C@@]1(C(=O)N2CCCCO2)C[C@@H]1c1ccccc1)OC)N(C)C(=O)[C@@H](NC(=O)[C@H](C(C)C)N(C)CCCC(=O)NNC(=O)CCCCCN1C(=O)CC(SC[C@H](N)C(=O)O)C1=O)C(C)C (stereo partly drawn) [Example 235, N-(4-{2-[6-(3-{[(2R)-2-amino-2-carboxyethyl]sulfanyl}-2,5-dioxopyrrolidin-1-yl)hexanoyl]hydrazino}-4-oxobutyl)-N-methyl-L-valyl-N-[(3R,4S,5S)-3-methoxy-1-{(2S)-2-[(1R,2R)-1-methoxy-2-methyl-3-{[(1S,2R)-1-(1,2-oxazinan-2-ylcarbonyl)-2-phenylcyclopropyl]amino}-3-oxopropyl]pyrrolidin-1-yl}-5-methyl-1-oxoheptan-4-yl]-N-methyl-L-valinamide] | 0.25 ×10⁻⁶ cm/s |
| CC[C@H](C)[C@@H]([C@@H](CC(=O)N1CCC[C@H]1[C@H](OC)[C@@H](C)C(=O)N[C@@H](Cc1c[nH]c2ccccc12)C(N)=O)OC)N(C)C(=O)[C@@H](NC(=O)[C@H](C(C)C)N(C)CCCCCCN1C(=O)CC(SC[C@H](N)C(=O)O)C1=O)C(C)C (stereo partly drawn) [Example 236, N-[6-(3-{[(2R)-2-amino-2-carboxyethyl]sulfanyl}-2,5-dioxopyrrolidin-1-yl)hexyl]-N-methyl-L-valyl-N-[(3R,4S,5S)-1-{(2S)-2-[(1R,2R)-3-{[(2S)-1-amino-3-(1H-indol-3-yl)-1-oxopropan-2-yl]amino}-1-methoxy-2-methyl-3-oxopropyl]pyrrolidin-1-yl}-3-methoxy-5-methyl-1-oxoheptan-4-yl]-N-methyl-L-valinamide] (X2-V[Dil][Dolaproine]W-NH2) | 0.5 ×10⁻⁶ cm/s |
| CC[C@H](C)[C@@H]([C@@H](CC(=O)N1CCC[C@H]1[C@H](OC)[C@@H](C)C(=O)N[C@@H](Cc1c[nH]c2ccccc12)C(=O)O)OC)N(C)C(=O)[C@@H](NC(=O)[C@H](C(C)C)N(C)CCCCCCN1C(=O)CC(SC[C@H](N)C(=O)O)C1=O)C(C)C (stereo partly drawn) [Example 237, N-[6-(3-{[(2R)-2-amino-2-carboxyethyl]sulfanyl}-2,5-dioxopyrrolidin-1-yl)hexyl]-N-methyl-L-valyl-N-[(3R,4S,5S)-1-{(2S)-2-[(1R,2R)-3-{[(1S)-1-carboxy-2-(1H-indol-3-yl)ethyl]amino}-1-methoxy-2-methyl-3-oxopropyl]pyrrolidin-1-yl}-3-methoxy-5-methyl-1-oxoheptan-4-yl]-N-methyl-L-valinamide] (X2-V[Dil][Dolaproine]W-OH) | 0.1 ×10⁻⁶ cm/s |
| CC[C@H](C)[C@@H]([C@@H](CC(=O)N1CCC[C@H]1[C@H](OC)[C@@H](C)C(=O)N[C@@H](Cc1c[nH]c2ccccc12)C(=O)NCc1ccccc1)OC)N(C)C(=O)[C@@H](NC(=O)[C@H](C(C)C)N(C)CCCC(=O)NNC(=O)CCCCCN1C(=O)CC(SC[C@H](N)C(=O)O)C1=O)C(C)C (stereo partly drawn) [Example 239, N-(4-{2-[6-(3-{[(2R)-2-amino-2-carboxyethyl]sulfanyl}-2,5-dioxopyrrolidin-1-yl)hexanoyl]hydrazino}-4-oxobutyl)-N-methyl-L-valyl-N-[(3R,4S,5S)-1-{(2S)-2-[(1R,2R)-3-{[(2S)-1-(benzylamino)-3-(1H-indol-3-yl)-1-oxopropan-2-yl]amino}-1-methoxy-2-methyl-3-oxopropyl]pyrrolidin-1-yl}-3-methoxy-5-methyl-1-oxoheptan-4-yl]-N-methyl-L-valinamide] | 0.7 ×10⁻⁶ cm/s |
| CC[C@H](C)[C@@H]([C@@H](CC(=O)N1CCC[C@H]1[C@H](OC)[C@@H](C)C(=O)N[C@@H](Cc1c[nH]c2ccccc12)C(=O)N1CCCCO1)OC)N(C)C(=O)[C@@H](NC(=O)[C@H](C(C)C)N(C)CCCCCC(=O)NCCCC[C@H](N)C(=O)O)C(C)C [Example 277, N-(6-{[(5S)-5-amino-5-carboxypentyl]amino}-6-oxohexyl)-N-methyl-L-valyl-N-[(3R,4S,5S)-1-{(2S)-2-[(1R,2R)-3-{[(2S)-3-(1H-indol-3-yl)-1-(1,2-oxazinan-2-yl)-1-oxopropan-2-yl]amino}-1-methoxy-2-methyl-3-oxopropyl]pyrrolidin-1-yl}-3-methoxy-5-methyl-1-oxoheptan-4-yl]-N-methyl-L-valinamide trifluoroacetate] (X1-V[Dil][Dolaproine]W-{Oxazinan2yl(1,2)}) | 0.2 ×10⁻⁶ cm/s |
| CC[C@H](C)[C@@H]([C@@H](CC(=O)N1CCC[C@H]1[C@H](OC)[C@@H](C)C(=O)N[C@@H](Cc1c[nH]c2ccccc12)C(=O)O)OC)N(C)C(=O)[C@@H](NC(=O)[C@H](C(C)C)N(C)CCCCCC(=O)NCCCC[C@H](N)C(=O)O)C(C)C [Example 278, N-(6-{[(5S)-5-amino-5-carboxypentyl]amino}-6-oxohexyl)-N-methyl-L-valyl-N-[(3R,4S,5S)-1-{(2S)-2-[(1R,2R)-3-{[(1S)-1-carboxy-2-(1H-indol-3-yl)ethyl]amino}-1-methoxy-2-methyl-3-oxopropyl]pyrrolidin-1-yl}-3-methoxy-5-methyl-1-oxoheptan-4-yl]-N-methyl-L-valinamide] (X1-V[Dil][Dolaproine]W-OH) | 0.1 ×10⁻⁶ cm/s |
| CC[C@H](C)[C@@H]([C@@H](CC(=O)N1CCC[C@H]1[C@H](OC)[C@@H](C)C(=O)N[C@H](C)[C@@H](O)c1ccccc1)OC)N(C)C(=O)[C@@H](NC(=O)[C@@H](NC)C(C)C)C(C)C [monomethyl auristatin E (MMAE), monomethyl auristatin E, reference compound] (H-[NMeV]V[Dil][Dolaproine]-X5) | 7.3 ×10⁻⁶ cm/s |
| CC[C@H](C)[C@@H]([C@@H](CC(=O)N1CCC[C@H]1[C@H](OC)[C@@H](C)C(=O)N[C@@H](Cc1ccccc1)C(=O)O)OC)N(C)C(=O)[C@@H](NC(=O)[C@@H](NC)C(C)C)C(C)C [monomethyl auristatin F (MMAF), monomethyl auristatin F, reference compound] (H-[NMeV]V[Dil][Dolaproine]F-OH) | 7.3 ×10⁻⁶ cm/s |

Test system: various carcinoma cell lines
Experiment: not given
Conditions: in comparison with MMAE; cited from earlier work

| SMILES | antiproliferative effect |
| --- | --- |
| CC[C@H](C)[C@@H]([C@@H](CC(=O)N1CCC[C@H]1[C@H](OC)[C@@H](C)C(=O)N[C@@H](Cc1ccccc1)C(=O)O)OC)N(C)C(=O)[C@@H](NC(=O)[C@@H](NC)C(C)C)C(C)C [MMAF, Monomethylauristatin F] (H-[NMeV]V[Dil][Dolaproine]F-OH) | only a moderate antiproliferative effect |

Same assay, conditions: in comparison with MMAF, various carcinoma cell lines; cited from earlier work

| SMILES | in vitro cytotoxicity |
| --- | --- |
| CC[C@H](C)[C@@H]([C@@H](CC(=O)N1CCC[C@H]1[C@H](OC)[C@@H](C)C(=O)N[C@@H](Cc1ccccc1)C(=O)OC)OC)N(C)C(=O)[C@@H](NC(=O)[C@@H](NC)C(C)C)C(C)C [MMAF-OMe, Monomethylauristatin F-methylester] (H-[NMeV]V[Dil][Dolaproine]F-OMe) | greater by several orders of magnitude |
